From PubChem BioAssay AID1963962 (Molecular Pharmacology Branch, DTP, NCI, 2024)
pIC50: −log10 of the molar value.

Tested on: 967376-340-R-J2-PDC multicell spheroid viability
Assay: Anticancer human tumor 967376-340-R-J2-PDC patient-derived colon adenocarcinoma cell line growth inhibition [PI3K]
Conditions: for pIC50: curve of first compound; for viability, T/C: stronger effect = lower value; active = viability on the fitted dose curve at most 10% of control; inactive = the rest
Method in brief: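 Tumor cells were combined with HUVEC and MSCs into spheroids, then dosed with PI3K-inhibitor combinations over half-log ranges capped near clinical Cmax or 10 microM.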

[1] = second compound 0.0316 µM, first compound 0.0316 µM
[2] = second compound 0.0316 µM, first compound 0.1 µM
[3] = second compound 0.0316 µM, first compound 0.316 µM
[4] = second compound 0.0316 µM, first compound 1 µM
[5] = second compound 0.0316 µM, first compound 3.16 µM
[6] = second compound 0.0316 µM, first compound 10 µM
[7] = second compound 0.1 µM, first compound 0.0316 µM
[8] = second compound 0.1 µM, first compound 0.1 µM
[9] = second compound 0.1 µM, first compound 0.316 µM
[10] = second compound 0.1 µM, first compound 1 µM
[11] = second compound 0.1 µM, first compound 3.16 µM
[12] = second compound 0.1 µM, first compound 10 µM
[13] = second compound 0.316 µM, first compound 0.0316 µM
[14] = second compound 0.316 µM, first compound 0.1 µM
[15] = second compound 0.316 µM, first compound 0.316 µM
[16] = second compound 0.316 µM, first compound 1 µM
[17] = second compound 0.316 µM, first compound 3.16 µM
[18] = second compound 0.316 µM, first compound 10 µM
[19] = second compound 1 µM, first compound 0.0316 µM
[20] = second compound 1 µM, first compound 0.1 µM
[21] = second compound 1 µM, first compound 0.316 µM
[22] = second compound 1 µM, first compound 1 µM
[23] = second compound 1 µM, first compound 3.16 µM
[24] = second compound 1 µM, first compound 10 µM
[25] = second compound 3.16 µM, first compound 0.0316 µM
[26] = second compound 3.16 µM, first compound 0.1 µM
[27] = second compound 3.16 µM, first compound 0.316 µM
[28] = second compound 3.16 µM, first compound 1 µM
[29] = second compound 3.16 µM, first compound 3.16 µM
[30] = second compound 3.16 µM, first compound 10 µM
[31] = second compound 10 µM, first compound 0.0316 µM
[32] = second compound 10 µM, first compound 0.1 µM
[33] = second compound 10 µM, first compound 0.316 µM
[34] = second compound 10 µM, first compound 1 µM
[35] = second compound 10 µM, first compound 3.16 µM
[36] = second compound 10 µM, first compound 10 µM
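Also: spheroids exposed to agents for 7 days before read-out.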
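For viability, T/C in this document: luminescence used as surrogate of cell viability.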

C#Cc1c(F)ccc2cc(O)cc(-c3ncc4c(N5CC6CCC(C5)N6)nc(OCC56CCCN5CC(F)C6)nc4c3F)c12 (stereo unspecified) + Cc1nc(NC(=O)N2CCCC2C(N)=O)sc1-c1ccnc(C(C)(C)C(F)(F)F)c1
< 5.00: pIC50 (second compound 0.0316 µM) | pIC50 (second compound 0.1 µM)
> 7.50: pIC50 (second compound 10 µM)
5.01: pIC50 (second compound 0.316 µM)
5.45: pIC50 (second compound 3.16 µM)
5.29: pIC50 (second compound 1 µM)
inactive: viability, T/C [1] 104% | viability, T/C [2] 85.6% | viability, T/C [3] 81.8% | viability, T/C [4] 82.7% | viability, T/C [5] 80.7% | viability, T/C [6] 68% | viability, T/C [7] 103% | viability, T/C [8] 81.7% | viability, T/C [9] 82.3% | viability, T/C [10] 70.4% | viability, T/C [11] 80.8% | viability, T/C [12] 69.6% | viability, T/C [13] 64.3% | viability, T/C [14] 90% | viability, T/C [15] 74.5% | viability, T/C [16] 69.8% | viability, T/C [17] 78.5% | viability, T/C [18] 49.8% | viability, T/C [19] 65.1% | viability, T/C [20] 68.3% | viability, T/C [21] 72.5% | viability, T/C [22] 66.8% | viability, T/C [23] 60.3% | viability, T/C [24] 35.5% | viability, T/C [25] 47.6% | viability, T/C [26] 75.2% | viability, T/C [27] 59% | viability, T/C [28] 59.5% | viability, T/C [29] 49.3% | viability, T/C [30] 34.9% | viability, T/C [31] 47.2% | viability, T/C [32] 41.7% | viability, T/C [33] 51.5% | viability, T/C [34] 37.3% | viability, T/C [35] 36.1% | viability, T/C [36] 16.9%

CC(Cn1ccc(-c2ccc(C#N)c(Cl)c2)n1)NC(=O)c1cc(C(C)O)[nH]n1 (stereo unspecified) + Cc1nc(NC(=O)N2CCCC2C(N)=O)sc1-c1ccnc(C(C)(C)C(F)(F)F)c1
inactive: viability, T/C [1] 90.6% | viability, T/C [2] 118% | viability, T/C [3] 104% | viability, T/C [4] 93.9% | viability, T/C [5] 109% | viability, T/C [6] 102% | viability, T/C [7] 95.1% | viability, T/C [8] 103% | viability, T/C [9] 91.6% | viability, T/C [10] 100% | viability, T/C [11] 92.9% | viability, T/C [12] 119% | viability, T/C [13] 69.3% | viability, T/C [14] 94.3% | viability, T/C [15] 95% | viability, T/C [16] 92.7% | viability, T/C [17] 102% | viability, T/C [18] 73.8% | viability, T/C [19] 58% | viability, T/C [20] 66.8% | viability, T/C [21] 75.2% | viability, T/C [22] 72.5% | viability, T/C [23] 83.5% | viability, T/C [24] 65.7% | viability, T/C [25] 54.4% | viability, T/C [26] 62.3% | viability, T/C [27] 61.5% | viability, T/C [28] 52.5% | viability, T/C [29] 62.9% | viability, T/C [30] 73.7% | viability, T/C [31] 57.3% | viability, T/C [32] 58.4% | viability, T/C [33] 43.3% | viability, T/C [34] 60.9% | viability, T/C [35] 72.1% | viability, T/C [36] 48.2%
< 5.00: pIC50 (second compound 0.0316 µM) | pIC50 (second compound 0.1 µM) | pIC50 (second compound 0.316 µM) | pIC50 (second compound 1 µM) | pIC50 (second compound 3.16 µM) | pIC50 (second compound 10 µM)

CC1(C)CCC(Nc2ncc(C(F)(F)F)c(-c3c[nH]c4c(P(C)(C)=O)c(C#N)ccc34)n2)CN1 (stereo unspecified) + Cc1nc(NC(=O)N2CCCC2C(N)=O)sc1-c1ccnc(C(C)(C)C(F)(F)F)c1
5.40: pIC50 (second compound 0.316 µM)
inactive: viability, T/C [1] 82.8% | viability, T/C [2] 72.5% | viability, T/C [3] 55.6% | viability, T/C [4] 54.7% | viability, T/C [5] 61.5% | viability, T/C [6] 40.8% | viability, T/C [7] 78.4% | viability, T/C [8] 68.8% | viability, T/C [9] 69.7% | viability, T/C [10] 66.8% | viability, T/C [11] 63% | viability, T/C [12] 41.2% | viability, T/C [13] 67.5% | viability, T/C [14] 73.3% | viability, T/C [15] 48.5% | viability, T/C [16] 58.5% | viability, T/C [17] 60.4% | viability, T/C [18] 39.2% | viability, T/C [19] 51.6% | viability, T/C [20] 53.8% | viability, T/C [21] 72.8% | viability, T/C [22] 43.6% | viability, T/C [23] 45.5% | viability, T/C [24] 34.1% | viability, T/C [25] 58.9% | viability, T/C [26] 51.2% | viability, T/C [27] 49.4% | viability, T/C [28] 47.3% | viability, T/C [29] 41.4% | viability, T/C [30] 30.7% | viability, T/C [31] 54.8% | viability, T/C [32] 39.1% | viability, T/C [33] 39.6% | viability, T/C [34] 34.9% | viability, T/C [35] 31.4% | viability, T/C [36] 23.3%
5.22: pIC50 (second compound 0.1 µM)
6.20: pIC50 (second compound 1 µM)
7.36: pIC50 (second compound 10 µM)
5.42: pIC50 (second compound 0.0316 µM)
6.41: pIC50 (second compound 3.16 µM)
